Assay results taken from patent US20130012432A1, “Peptides for Treatment of Obesity” (Novo Nordisk A/S, priority 2010, published 2013).
≈ marks a conversion by molar mass, not a printed value. Positions of bridges follow the written chain, without caps; N, C: chain ends. Non-standard residues stand in square brackets, D forms with d. Residues, ends and D or L forms follow the SMILES beside them. Groups on a side chain read outwards from the residue. *: point of attachment. Palmitoyl(16-(5-tetrazolyl)) = O=C(CCCCCCCCCCCCCCCc1nnn[nH]1)*; Lys(CH2CO2H)2 = N[C@@H](CCCCN(CC(=O)O)CC(=O)O)C(=O)O; X1 = O=C(O)CCCCCCCCCCCCCCCCC(=O)NCCOCCOCCN*; C18 diacid = O=C(O)CCCCCCCCCCCCCCCCC(=O)*; C16 diacid = O=C(O)CCCCCCCCCCCCCCC(=O)*; NTA = O=C(O)CN(CC(=O)O)CC(=O)*; hCys = N[C@@H](CCS)C(=O)O; Orn = NCCC[C@H](N)C(=O)O; Dap = NC[C@H](N)C(=O)O; AEEA = NCCOCCOCC(=O)O

Assay: physchem
Description: From a stock solution in vehicle, either H2O or 10 mM phosphate, containing 1 mg (as weighed) compound per ml, 8-11 aliquots are withdrawn and pH-adjusted individually with HCl/NaOH, to cover the whole pH range.

Structure (SMILES)	solubility (pH 5.3, Solubility Conc.) [µM]	solubility (pH 6.1, Solubility Conc.) [µM]	solubility (pH 6.8, Solubility Conc.) [µM]	solubility (pH 7.1, Solubility Conc.) [µM]	solubility (pH 7.4, Solubility Conc.) [µM]	solubility (pH 7.7, Solubility Conc.) [µM]	solubility (pH 7.9, Solubility Conc.) [µM]	solubility (pH 6.7, Solubility Conc.) [µM]	solubility (pH 7, Solubility Conc.) [µM]	solubility (pH 7.3, Solubility Conc.) [µM]	solubility (pH 7.6, Solubility Conc.) [µM]	solubility (pH 7.8, Solubility Conc.) [µM]	other results
CC(=O)N[C@H]1CCC(=O)NCCC[C@@H](C(=O)N2CCC[C@H]2C(=O)N2CCC[C@H]2C(=O)N[C@@H](CCCNC(=N)N)C(=O)N[C@@H](CC(=O)O)C(=O)N[C@@H](CCCCN(CC(=O)O)CC(=O)O)C(=O)N[C@@H](CCCCNC(=O)COCCOCCNC(=O)CCCCCCCCCCCCCCC(=O)O)C(N)=O)NC(=O)[C@H](Cc2c[nH]c3ccccc23)NC(=O)[C@H](CCCNC(=N)N)NC(=O)[C@@H](Cc2ccccc2)NC(=O)[C@H](Cc2cnc[nH]2)NC1=O [Example 18, Ac-c[Glu-His-D-Phe-Arg-Trp-Orn]-Pro-Pro-Arg-Asp-Lys(biscarboxymethyl)-Lys({2-[2-(15-carboxypentadecanoylamino)ethoxy]ethoxy}acetyl)-NH2] (Ac-EH[dF]RW[Orn]PPRD[Lys(CH2CO2H)2]K([AEEA-C16 diacid])-NH2; lactam 1-6)	193 (≈ 417 µg/mL)	310 (≈ 670 µg/mL)	447 (≈ 967 µg/mL)	484 (≈ 1050 µg/mL)	449 (≈ 971 µg/mL)	451 (≈ 975 µg/mL)	474 (≈ 1030 µg/mL)	–	–	–	–	–	solubility (pH 6.4, Solubility Conc.): 326 µM (≈ 705 µg/mL); solubility (pH 6.5, Solubility Conc.): 392 µM (≈ 848 µg/mL)
CC(=O)N[C@H]1CCCNC(=O)C[C@@H](C(=O)N2CCC[C@H]2C(=O)N2CCC[C@H]2C(=O)N[C@@H](Cc2c[nH]cn2)C(=O)N[C@@H](CCC(=O)O)C(=O)N[C@@H](CCCCN(CC(=O)O)CC(=O)O)C(=O)N[C@@H](CCCCNC(=O)COCCOCCNC(=O)CCCCCCCCCCCCCCC(=O)O)C(N)=O)NC(=O)[C@H](Cc2c[nH]c3ccccc23)NC(=O)[C@H](CCCNC(=N)N)NC(=O)[C@@H](Cc2ccccc2)NC(=O)[C@H](Cc2c[nH]cn2)NC1=O [Example 51, Ac-c[Orn-His-D-Phe-Arg-Trp-Asp]-Pro-Pro-His-Glu-Lys(biscarboxymethyl)-Lys({2-[2-(15-carboxypentadecanoylamino)ethoxy]ethoxy}acetyl)-NH2] (Ac-[Orn]H[dF]RWDPPHE[Lys(CH2CO2H)2]K([AEEA-C16 diacid])-NH2; lactam 1-6)	204 (≈ 437 µg/mL)	359 (≈ 770 µg/mL)	–	–	–	–	–	460 (≈ 986 µg/mL)	442 (≈ 947 µg/mL)	468 (≈ 1000 µg/mL)	485 (≈ 1040 µg/mL)	457 (≈ 980 µg/mL)	solubility (pH 5.8, Solubility Conc.): 280 µM (≈ 600 µg/mL); solubility (pH 6.4, Solubility Conc.): 450 µM (≈ 965 µg/mL)
CC(=O)N[C@H]1CCCNC(=O)C[C@@H](C(=O)N2CCC[C@H]2C(=O)N[C@@H](CO)C(=O)N[C@@H](CO)C(=O)N[C@@H](CO)C(=O)N[C@@H](CCCCN(CC(=O)O)CC(=O)O)C(=O)N[C@@H](CO)C(=O)N[C@@H](CO)C(=O)N[C@@H](CCCCNC(=O)COCCOCCNC(=O)CCCCCCCCCCCCCCC(=O)O)C(N)=O)NC(=O)[C@H](Cc2c[nH]c3ccccc23)NC(=O)[C@H](CCCNC(=N)N)NC(=O)[C@@H](Cc2ccccc2)NC(=O)[C@H](Cc2c[nH]cn2)NC1=O [Example 12, Ac-c[Orn-His-D-Phe-Arg-Trp-Asp]-Pro-Ser-Ser-Ser-Lys(biscarboxymethyl)-Ser-Ser-Lys({2-[2-(15-carboxypentadecanoylamino)ethoxy]ethoxy}acetyl)-NH2] (Ac-[Orn]H[dF]RWDPSSS[Lys(CH2CO2H)2]SSK([AEEA-C16 diacid])-NH2; lactam 1-6)	–	–	–	–	–	–	–	–	–	–	–	–	solubility (pH 4.8, Solubility Conc., pH 4.8, vehicle 10 mM phosphate): 228 µM (≈ 505 µg/mL); solubility (pH 5.8, Solubility Conc., pH 5.8, vehicle 10 mM phosphate): 300 µM (≈ 665 µg/mL); solubility (pH 6.3, Solubility Conc., pH 6.3, vehicle 10 mM phosphate): 400 µM (≈ 886 µg/mL); solubility (pH 6.7, Solubility Conc., pH 6.7, vehicle 10 mM phosphate): 431 µM (≈ 955 µg/mL); solubility (pH 7, Solubility Conc., pH 7.0, vehicle 10 mM phosphate): 426 µM (≈ 944 µg/mL); solubility (pH 7.2, Solubility Conc., pH 7.2, vehicle 10 mM phosphate): 479 µM (≈ 1060 µg/mL); solubility (pH 7.5, Solubility Conc., pH 7.5, vehicle 10 mM phosphate): 405 µM (≈ 897 µg/mL); solubility (pH 7.8, Solubility Conc., pH 7.8, vehicle 10 mM phosphate): 480 µM (≈ 1060 µg/mL); solubility (pH 8.1, Solubility Conc., pH 8.1, vehicle 10 mM phosphate): 439 µM (≈ 973 µg/mL)
CC(=O)N[C@H]1CCSSC[C@@H](C(=O)N[C@@H](CO)C(=O)N2CCC[C@H]2C(=O)N[C@@H](Cc2c[nH]cn2)C(=O)N[C@@H](CCC(=O)O)C(=O)N[C@@H](CCCCN(CC(=O)O)CC(=O)O)C(=O)N[C@@H](CCCCNC(=O)COCCOCCNC(=O)CCCCCCCCCCCCCCCCC(=O)O)C(N)=O)NC(=O)[C@H](Cc2c[nH]c3ccccc23)NC(=O)[C@H](CCCNC(=N)N)NC(=O)[C@@H](Cc2ccccc2)NC(=O)[C@H](Cc2c[nH]cn2)NC1=O [Example 62, Ac-c[homoCys-His-D-Phe-Arg-Trp-Cys]-Ser-Pro-His-Glu-Lys(biscarboxymethyl)-Lys({2-[2-(17-carboxyheptadecanoylamino)ethoxy]ethoxy}acetyl)-NH2] (Ac-[hCys]H[dF]RWCSPHE[Lys(CH2CO2H)2]K([AEEA-C18 diacid])-NH2; disulfide 1-6)	–	–	–	–	243 (≈ 527 µg/mL)	251 (≈ 544 µg/mL)	245 (≈ 531 µg/mL)	41 (≈ 88.9 µg/mL)	42 (≈ 91.1 µg/mL)	241 (≈ 523 µg/mL)	–	–	solubility (pH 3.4, Solubility Conc.): 235 µM (≈ 510 µg/mL); solubility (pH 5, Solubility Conc.): 15 µM (≈ 32.5 µg/mL); solubility (pH 6.9, Solubility Conc.): 82 µM (≈ 178 µg/mL); solubility (pH 8, Solubility Conc.): 233 µM (≈ 505 µg/mL)
CC(=O)N[C@H]1CCCNC(=O)C[C@@H](C(=O)N2CCC[C@H]2C(=O)N2CCC[C@H]2C(=O)N[C@@H](CCCNC(=N)N)C(=O)N[C@@H](CCC(=O)O)C(=O)N[C@@H](CCCCN(CC(=O)O)CC(=O)O)C(=O)N[C@@H](CO)C(=O)N[C@@H](CO)C(=O)NCCOCCOCCNC(=O)CCCCCCCCCCCCCCCCC(=O)O)NC(=O)[C@H](Cc2c[nH]c3ccccc23)NC(=O)[C@H](CCCNC(=N)N)NC(=O)[C@@H](Cc2ccccc2)NC(=O)[C@H](Cc2c[nH]cn2)NC1=O [Example 50, Ac-c[Orn-His-D-Phe-Arg-Trp-Asp]-Pro-Pro-Arg-Glu-Lys(biscarboxymethyl)-Ser-Ser-NH(2-{2-[2-(17-carboxyheptadecanoylamino)ethoxy]ethoxy}ethyl)] (Ac-[Orn]H[dF]RWDPPRE[Lys(CH2CO2H)2]SS-X1; lactam 1-6)	–	–	–	–	156 (≈ 347 µg/mL)	197 (≈ 438 µg/mL)	208 (≈ 462 µg/mL)	–	92 (≈ 204 µg/mL)	–	–	212 (≈ 471 µg/mL)	solubility (pH 6.5, Solubility Conc.): 57 µM (≈ 127 µg/mL); solubility (pH 7.2, Solubility Conc.): 123 µM (≈ 273 µg/mL); solubility (pH 7.5, Solubility Conc.): 176 µM (≈ 391 µg/mL); solubility (pH 8.2, Solubility Conc.): 212 µM (≈ 471 µg/mL)
CC(=O)N[C@H]1CCSSC[C@@H](C(=O)N2CCC[C@H]2C(=O)N2CCC[C@H]2C(=O)N[C@@H](CCCCN)C(=O)N[C@@H](CC(=O)O)C(=O)N[C@@H](CNC(=O)CN(CC(=O)O)CC(=O)O)C(=O)N[C@@H](CCCCNC(=O)COCCOCCNC(=O)CCCCCCCCCCCCCCCc2nnn[nH]2)C(N)=O)NC(=O)[C@H](Cc2c[nH]c3ccccc23)NC(=O)[C@H](CCCNC(=N)N)NC(=O)[C@@H](Cc2ccccc2)NC(=O)[C@H](Cc2c[nH]cn2)NC1=O [Example 61, Ac-c[homoCys-His-D-Phe-Arg-Trp-Cys]-Pro-Pro-Lys-Asp-Dap(BCMA)-Lys[(2-{2-[16-(tetrazol-5-yl)hexadecanoylamino]ethoxy}ethoxy)acetyl]-NH2] (Ac-[hCys]H[dF]RWCPPKD[Dap](NTA)K([AEEA-Palmitoyl(16-(5-tetrazolyl))])-NH2; disulfide 1-6)	32 (≈ 69.8 µg/mL)	–	46 (≈ 100 µg/mL)	256 (≈ 558 µg/mL)	713 (≈ 1550 µg/mL)	805 (≈ 1760 µg/mL)	–	–	–	630 (≈ 1370 µg/mL)	–	–	solubility (pH 3.3, Solubility Conc.): 623 µM (≈ 1360 µg/mL); solubility (pH 4.4, Solubility Conc.): 575 µM (≈ 1250 µg/mL); solubility (pH 4.8, Solubility Conc.): 584 µM (≈ 1270 µg/mL); solubility (pH 6.3, Solubility Conc.): 26 µM (≈ 56.7 µg/mL)
CC(=O)N[C@H]1CCCNC(=O)C[C@@H](C(=O)N2CCC[C@H]2C(=O)N2CCC[C@H]2C(=O)N[C@@H](Cc2c[nH]cn2)C(=O)N[C@@H](CCC(=O)O)C(=O)N[C@@H](CCCCN(CC(=O)O)CC(=O)O)C(=O)N[C@@H](CCCCNC(=O)COCCOCCNC(=O)CCCCCCCCCCCCCCCCC(=O)O)C(N)=O)NC(=O)[C@H](Cc2c[nH]c3ccccc23)NC(=O)[C@H](CCCNC(=N)N)NC(=O)[C@@H](Cc2ccccc2)NC(=O)[C@H](Cc2c[nH]cn2)NC1=O [Example 46, Ac-c[Orn-His-D-Phe-Arg-Trp-Asp]-Pro-Pro-His-Glu-Lys(biscarboxymethyl)-Lys({2-[2-(17-carboxyheptadecanoylamino)ethoxy]ethoxy}acetyl)-NH2] (Ac-[Orn]H[dF]RWDPPHE[Lys(CH2CO2H)2]K([AEEA-C18 diacid])-NH2; lactam 1-6)	–	47 (≈ 102 µg/mL)	471 (≈ 1020 µg/mL)	494 (≈ 1070 µg/mL)	–	–	–	422 (≈ 916 µg/mL)	–	–	509 (≈ 1110 µg/mL)	507 (≈ 1100 µg/mL)	solubility (pH 5, Solubility Conc.): 25 µM (≈ 54.3 µg/mL); solubility (pH 5.4, Solubility Conc.): 24 µM (≈ 52.1 µg/mL); solubility (pH 6.6, Solubility Conc.): 160 µM (≈ 347 µg/mL)
CC(=O)N[C@H]1CCC(=O)NCCC[C@@H](C(=O)N2CCC[C@H]2C(=O)N2CCC[C@H]2C(=O)N[C@@H](CCCNC(=N)N)C(=O)N[C@@H](CC(=O)O)C(=O)N[C@@H](CCCCN(CC(=O)O)CC(=O)O)C(=O)N[C@@H](CCCCNC(=O)COCCOCCNC(=O)CCCCCCCCCCCCCCCc2nnn[nH]2)C(N)=O)NC(=O)[C@H](Cc2c[nH]c3ccccc23)NC(=O)[C@H](CCCNC(=N)N)NC(=O)[C@@H](Cc2ccccc2)NC(=O)[C@H](Cc2c[nH]cn2)NC1=O [Example 54, Ac-c[Glu-His-D-Phe-Arg-Trp-Orn]-Pro-Pro-Arg-Asp-Lys(biscarboxymethyl)-Lys[(2-{2-[16-(tetrazol-5-yl)hexadecanoylamino]ethoxy}ethoxy)acetyl]-NH2] (Ac-EH[dF]RW[Orn]PPRD[Lys(CH2CO2H)2]K([AEEA-Palmitoyl(16-(5-tetrazolyl))])-NH2; lactam 1-6)	–	–	43 (≈ 94.6 µg/mL)	95 (≈ 209 µg/mL)	221 (≈ 486 µg/mL)	–	217 (≈ 478 µg/mL)	–	78 (≈ 172 µg/mL)	–	202 (≈ 445 µg/mL)	200 (≈ 440 µg/mL)	solubility (pH 5.5, Solubility Conc.): 22 µM (≈ 48.4 µg/mL); solubility (pH 6.2, Solubility Conc.): 23 µM (≈ 50.6 µg/mL)
